Measured values taken from US10329542B2, “HBV RNAse H purification and enzyme inhibitors” (Saint Louis University, priority 2012, dated 2019).
Entries after “also recorded” stand apart in the source; their conditions may differ.

Columns and labels:
HBV genotype A = assay: HBV replication inhibition in Huh7 cells, Southern blot, genotype A; type: cell-based, Hepatitis B virus; settings: for Inhibition of HBV replication, RNA:DNA heteroduplex signature: 10 μM, Huh7 cells, Southern blot
Protocol: Huh7 cells were maintained in Dulbecco's modified Eagle's medium with 10% fetal bovine serum at 37° C. in 5% CO2. Cells were seeded into 60 mm dishes and transfected at 70% confluency with 2.6 μg of plasmids using TransIT-LT1 (Mirus, Inc.). Test compounds were added the morning following transfection at 10 or 50 μM, and fresh medium containing the compounds was provided every 1-2 days. Four or five days post-transfection HBV cores were isolated by lysis of the cells in 10 mM Tris pH 7.5, 1 mM EDTA, 0.25% NP40, 50 mM NaCl, and 8% sucrose followed by sedimentation through a 30% sucrose cushion as described (Travis, et al., 1998). Viral DNAs were isolated from cytoplasmic core particle preparations by proteinase K digestion followed by phenol/chloroform extraction as described (Gong et al., 2001). Duplicate aliquots of the nucleic acids were treated with 2 U E. coli DNAse-free RNAseH (Invitrogen) at 37° C. for 30 min. or were mock treated. The nucleic acid samples were resolved by electrophoresis on 1.2% agarose gels and detected by Southern blotting with ^32P-labeled HBV DNA as a probe.
Finally, the inventors asked whether HBV RNAseH inhibitors could block HBV replication in culture. Huh7 cells were transfected with genomic expression vectors for HBV genotype A or D isolates, the cells were treated with 10 or 50 μM compounds, and viral nucleic acids were isolated from intracellular HBV capsids after four days. Replicate nucleic acid aliquots were mock treated or treated with DNAse-free E. coli RNAseH to destroy RNA:DNA heteroduplexes, and then HBV DNAs were detected by Southern blotting. The signature of RNAseH inhibition is accumulation of RNA:DNA heteroduplexes that migrate as double-stranded species without exogenous RNAseH treatment but as faster-migrating single-stranded DNAs following RNAseH treatment.
Inhibition of HBV replication by βTJ was measured as recently described (Tavis et al., 2013). Briefly, Huh7 cells were transfected with HBV genomic expression vectors using TransIT-LT1 (Mirus, Inc.), βTJ was added 12-16 hrs post-transfection at the indicated concentrations, and fresh medium containing the compounds was provided two days later. HBV core particles were isolated four days post-transfection by detergent lysis of the cells and sedimentation through a sucrose cushion as described (Tavis et al., 1998). Viral DNAs were isolated from cytoplasmic core particle preparations by proteinase K digestion followed by phenol/chloroform extraction as described (Gong et al., 2001). Duplicate aliquots of each nucleic acid preparation were treated with 2 U E. coli DNAse-free RNAseH (Invitrogen) at 37° C. for 30 min. or were mock treated. The nucleic acids were resolved by electrophoresis on 1.2% agarose gels and HBV DNAs were detected by Southern blotting with ^32P-labeled double-stranded HBV DNA as a probe to detect both the plus- and minus-polarity HBV DNA strands. HBV core protein (HBc) and β-actin in the cytoplasmic lysates were monitored by western analysis using an anti-HBc antibody (HBP-023-9, Austral Biologicals) and a mouse […] monoclonal antibody from ZSGB-BIO Co., Ltd., respectively. HBV surface antigen (HBs) proteins were quantified by ELISA (Shanghai Kehua Biotech).

Huh7 cells = assay: MTS cytotoxicity assay in Huh7 cells; type: cell-based, human
Protocol: Toxicity of βTJ in Huh7 cells was determined with 3-(4,5-dimethylthiazol-2-yl)-5-β-carboxymethoxyphenyl)-2-(4-sulfophenyl)-2H-tetrazolium (MTS) assays that measures mitochondrial dysfunction employing the Cell Titre 96 aqueous nonradioactive cell proliferation assay (Promega), and with the CytoTox-Glo assay (Promega) that reflects cellular integrity. Huh7 and HepG2 cells (1×10^4) were plated in 96-well tissue culture plates, medium containing βTJ at the indicated concentrations was added the next day, the medium was replaced with fresh medium containing βTJ after two days, and after four days the MTS or CytoTox-Glo assays were conducted according to the manufacturer's instructions.

HBV = assay: Quantitative PCR screen of HBV plus-polarity DNA accumulation; type: cell-based, Hepatitis B virus; settings: 60, 20, or 6.7 μM; DNA isolated day 3
Protocol: This assay was employed to screen 7 compounds for their ability to suppress HBV replication (FIG. 17). […] Fresh medium containing compound was provided on days 1 and 2, and capsid-associated HBV DNAs were isolated on day 3. HBV plus-strand DNAs were measured using the cross-gap TaqMan PCR assay.
Plus-polarity preferential quantitative TaqMan PCR for the HBV DNA was conducted employing forward primer […] […] PCR was conducted on purified HBV capsid-derived nucleic acids for 40 cycles of 95° C. for 15 sec. and 65° C. for 1 min. employing the TaqMan universal PCR master mix (Applied Biosystems). Results were standardized against serial dilutions of cloned HBV DNA. The EC50 was estimated by linear regression of the real-time PCR data.

## Cc1c2cc(O)c(=O)cc-2oc2cc(O)c(O)cc12 [Compound 8]
HBV genotype A
  Inhibition of HBV replication, RNA:DNA heteroduplex signature: did not affect HBV replication

## NCc1ccc(-c2ccc(Cc3cc(=O)n(O)c4ncccc34)cc2)cc1 [Compound 12, napthyridinone]
Huh7 cells
  Estimated CC50, MTS assay, Huh7 cells: low μM range
HBV genotype A
  Inhibition of HBV replication, RNA:DNA heteroduplex signature: blocked production of the slowest-migrating double-stranded forms; also recorded: inhibited HBV replication in cell culture; also recorded: inhibited production of the slowest-migrating (mature) viral DNA

## COc1ccc2ccccc2c1C=NNC(=O)c1cc(O)c(O)c(O)c1 [Compound 14]
HBV genotype A; 25 μM
  Inhibition of HBV replication: inhibited HBV replication in one experiment

## CCOc1ccc(-c2c3cc(O)c(=O)cc-3oc3cc(O)c(O)cc23)cc1 [Compound 30]
HBV
  Suppression of HBV plus-polarity DNA accumulation: inhibited accumulation of HBV plus-polarity DNA to lesser extents

## [N-]=[N+]=NCc1cccc(C(=O)CC(=O)C(=O)O)c1 [Compound 40]
HBV genotype A; 50 μM
  Inhibition of HBV replication: inhibited replication in another experiment

## CC(C)c1ccc(O)c(=O)c(O)c1 [Compound 46, beta-thujaplicinol]
Huh7 cells; four days
  CC50: 10.1 ± 1.7 µM
HBV genotype A
  Inhibition of HBV replication, RNA:DNA heteroduplex signature: inhibited HBV replication in cell culture; also recorded: inhibited production of the slowest-migrating (mature) viral DNA
HBV genotype A; 2.5, 10, 15, and 20 μM, four days
  Accumulation of RC DNA and RNA:DNA heteroduplexes: suppressed accumulation of the RC DNA
HBV genotype A; 15 and 20 μM
  Total amount of viral DNA detected: suppressed
HBV
  Suppression of HBV plus-polarity DNA accumulation: suppressed viral replication to background
